Experimental data taken from article PMC6321567 (2018).

System: 22HT (DNA, G4) AGGGTTAGGGTTAGGGTTAGGG
Assay: CD melting at 293 nm
Settings: 10 mM Tris-HCl pH 7.2, 3 equiv. ligand

ΔTm (100 mM KCl, 2 µM DNA, SD of Tm ±0.5 °C): 4.3 °C | ΔTm (100 mM NaCl, 2 µM DNA, SD of Tm ±0.5 °C): 4.5 °C | ΔTm (no added Na+ or K+, ligand-induced G4 folding, Tm without ligand <14 °C): > 30.6 °C
Compound: CC[n+]1c(/C=C/c2ccc3c(c2)c2ccccc2n3CCCCn2ccnc2)sc2ccccc21
